# Measurements from PubChem BioAssay (NCI).
#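 Tested at 5 concentrations; 48 h exposure; 96-well plates; endpoints linearly interpolated, else capped at highest concentration. Definition used: TGI = concentration required for complete inhibition of growth.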
# Key:
# Assay in all cases: DTP human tumour cell line panel, 48 h
# [1] = tested on: SK-OV-3 ovarian
# [2] = tested on: SR leukemia
# [3] = tested on: HOP-18 NSCLC
# [4] = tested on: NCI-H522 lung
# [5] = tested on: DLD-1 colon
# [6] = tested on: XF 498 CNS
# [7] = tested on: RXF 393 renal
# [8] = tested on: IGROV1 ovarian
# [9] = tested on: TK-10 renal
# [10] = tested on: MALME-3M melanoma
# [11] = tested on: M14 melanoma
# [12] = tested on: UACC-257 melanoma
# [13] = tested on: SNB-19 CNS
# [14] = tested on: SF-268 CNS
# [15] = tested on: SW-620 colon
# [16] = tested on: SK-MEL-5 melanoma
# [17] = tested on: KM12 colon
# [18] = tested on: NCI-H460 lung
# [19] = tested on: HCC-2998 colon
# [20] = tested on: SK-MEL-28 melanoma
# [21] = tested on: HOP-92 NSCLC
# [22] = tested on: OVCAR-8 ovarian
# [23] = tested on: 786-0 renal
# [24] = tested on: K-562 leukemia
# [25] = tested on: U251 CNS
# [26] = tested on: NCI-H23 lung
# [27] = tested on: SK-MEL-2 melanoma
# [28] = tested on: SF-295 CNS
# [29] = tested on: HT29 colon
# [30] = tested on: SF-539 CNS
# [31] = tested on: SN12C renal
# [32] = tested on: RPMI-8226 leukemia
# [33] = tested on: HCT-15 colon
# [34] = tested on: OVCAR-3 ovarian
# [35] = tested on: UO-31 renal
# [36] = tested on: EKVX NSCLC
# [37] = tested on: NCI-H226 lung
# [38] = tested on: OVCAR-5 ovarian
# [39] = tested on: CCRF-CEM leukemia
# [40] = tested on: ACHN renal
# [41] = tested on: A549 NSCLC
# [42] = tested on: MOLT-4 leukemia
# [43] = tested on: HL-60(TB) leukemia
# [44] = tested on: LXFL 529 NSCLC
# [45] = tested on: DMS 114 small cell lung
# [46] = tested on: KM20L2 colon
# [47] = tested on: HOP-62 NSCLC
# [48] = tested on: OVCAR-4 ovarian
# [49] = tested on: DMS 273 small cell lung
# [50] = tested on: M19-MEL melanoma
# [51] = tested on: CAKI-1 renal
# [52] = tested on: SNB-78 CNS
# [53] = tested on: HCT-116 colon
# [54] = tested on: A498 renal
# [55] = tested on: UACC-62 melanoma
# [56] = tested on: SNB-75 CNS
# [57] = tested on: LOX IMVI melanoma
# [58] = tested on: COLO 205 colon
smiles,measurement,setting,value
O=C(O)Cc1cc(=O)[nH]c2c1/C(=N/O)CCC2,TGI,[1],> 100 µM
same,TGI,[2],> 100 µM
same,TGI,[3],> 100 µM
same,TGI,[4],> 100 µM
same,TGI,[5],> 100 µM
same,TGI,[6],> 100 µM
same,TGI,[7],> 100 µM
same,TGI,[8],> 100 µM
same,TGI,[9],> 100 µM
same,TGI,[10],> 100 µM
same,TGI,[11],> 100 µM
same,TGI,[12],> 100 µM
same,TGI,[13],> 100 µM
same,TGI,[14],> 100 µM
same,TGI,[15],> 100 µM
same,TGI,[16],> 100 µM
same,TGI,[17],> 100 µM
same,TGI,[18],> 100 µM
same,TGI,[19],> 100 µM
same,TGI,[20],> 100 µM
same,TGI,[21],> 100 µM
same,TGI,[22],> 100 µM
same,TGI,[23],> 100 µM
same,TGI,[24],> 100 µM
same,TGI,[25],> 100 µM
same,TGI,[26],> 100 µM
same,TGI,[27],> 100 µM
same,TGI,[28],> 100 µM
same,TGI,[29],> 100 µM
same,TGI,[30],> 100 µM
same,TGI,[31],> 100 µM
same,TGI,[32],> 100 µM
same,TGI,[33],> 100 µM
same,TGI,[34],> 100 µM
same,TGI,[35],> 100 µM
same,TGI,[36],> 100 µM
same,TGI,[37],> 100 µM
same,TGI,[38],> 100 µM
same,TGI,[39],> 100 µM
same,TGI,[40],> 100 µM
same,TGI,[41],> 100 µM
same,TGI,[42],> 100 µM
same,TGI,[43],> 100 µM
same,TGI,[44],> 100 µM
CN(C)CCNC(=O)c1cccc2nc3cc(Cl)ccc3nc12,TGI,[1],> 40.3 µM
same,TGI,[2],> 100 µM
same,TGI,[45],6.69 µM
same,TGI,[3],> 63.2 µM
same,TGI,[4],> 100 µM
same,TGI,[5],20.3 µM
same,TGI,[7],6.31 µM
same,TGI,[8],> 50.6 µM
same,TGI,[9],15 µM
same,TGI,[10],4.8 µM
same,TGI,[11],> 21.9 µM
same,TGI,[12],8.69 µM
same,TGI,[13],16.9 µM
same,TGI,[15],> 23.7 µM
same,TGI,[16],> 33.6 µM
same,TGI,[46],9.08 µM
same,TGI,[17],15.2 µM
same,TGI,[47],5.61 µM
same,TGI,[48],8.54 µM
same,TGI,[49],> 100 µM
same,TGI,[19],10.7 µM
same,TGI,[20],8.27 µM
same,TGI,[21],> 23.8 µM
same,TGI,[22],> 21.3 µM
same,TGI,[23],> 31 µM
same,TGI,[24],4.14 µM
same,TGI,[25],12.4 µM
same,TGI,[26],5.26 µM
same,TGI,[27],7.57 µM
same,TGI,[28],> 27.8 µM
same,TGI,[50],3.89 µM
same,TGI,[29],6.22 µM
same,TGI,[30],11.4 µM
same,TGI,[31],10.7 µM
same,TGI,[32],31.6 µM
same,TGI,[33],11.5 µM
same,TGI,[51],> 23.5 µM
same,TGI,[34],6.15 µM
same,TGI,[35],> 29.1 µM
same,TGI,[36],18.1 µM
same,TGI,[37],5.14 µM
same,TGI,[52],10.5 µM
same,TGI,[38],7.62 µM
same,TGI,[53],2.23 µM
same,TGI,[54],4.65 µM
same,TGI,[55],9.67 µM
same,TGI,[40],4.22 µM
same,TGI,[41],> 26.7 µM
same,TGI,[56],15.4 µM
same,TGI,[42],2.77 µM
same,TGI,[57],2.86 µM
same,TGI,[43],13.9 µM
same,TGI,[44],> 22.3 µM
O=C(Nc1ccc(Cl)cc1Cl)C1C(=O)C(=O)N(c2ccc(Cl)cc2Cl)C1=O (stereo not drawn),TGI,[1],> 100 µM
same,TGI,[45],> 100 µM
same,TGI,[3],> 100 µM
same,TGI,[4],> 100 µM
same,TGI,[5],> 100 µM
same,TGI,[7],> 100 µM
same,TGI,[8],> 100 µM
same,TGI,[9],> 100 µM
same,TGI,[10],> 100 µM
same,TGI,[11],> 100 µM
same,TGI,[12],> 100 µM
same,TGI,[13],> 100 µM
same,TGI,[14],> 100 µM
same,TGI,[15],> 100 µM
same,TGI,[16],> 100 µM
same,TGI,[46],> 100 µM
same,TGI,[17],> 100 µM
same,TGI,[47],> 100 µM
same,TGI,[18],> 100 µM
same,TGI,[48],> 100 µM
same,TGI,[19],> 100 µM
same,TGI,[20],> 100 µM
same,TGI,[22],> 100 µM
same,TGI,[23],> 100 µM
same,TGI,[25],> 100 µM
same,TGI,[26],> 100 µM
same,TGI,[50],> 100 µM
same,TGI,[29],> 100 µM
same,TGI,[30],> 100 µM
same,TGI,[31],> 100 µM
same,TGI,[33],> 100 µM
same,TGI,[51],> 100 µM
same,TGI,[34],> 100 µM
same,TGI,[35],> 100 µM
same,TGI,[36],> 100 µM
same,TGI,[37],84.1 µM
same,TGI,[52],> 100 µM
same,TGI,[38],> 100 µM
same,TGI,[53],> 100 µM
same,TGI,[54],> 100 µM
same,TGI,[55],> 100 µM
same,TGI,[40],> 100 µM
same,TGI,[41],> 100 µM
same,TGI,[56],> 100 µM
same,TGI,[57],> 100 µM
same,TGI,[43],> 100 µM
same,TGI,[44],> 100 µM
C/C=C1\C=C(OC)CN(CCc2c[nH]c3ccccc23)C1,TGI,[2],> 100 µM
same,TGI,[45],> 100 µM
same,TGI,[4],> 100 µM
same,TGI,[5],> 100 µM
same,TGI,[6],> 100 µM
same,TGI,[8],> 100 µM
same,TGI,[9],> 100 µM
same,TGI,[10],56.8 µM
same,TGI,[11],95.6 µM
same,TGI,[12],> 100 µM
same,TGI,[13],> 100 µM
same,TGI,[14],95.5 µM
same,TGI,[15],> 100 µM
same,TGI,[16],53.3 µM
same,TGI,[46],> 100 µM
same,TGI,[17],> 100 µM
same,TGI,[47],> 100 µM
same,TGI,[18],> 100 µM
same,TGI,[48],> 100 µM
same,TGI,[49],> 100 µM
same,TGI,[19],33.1 µM
same,TGI,[22],> 100 µM
same,TGI,[58],> 100 µM
same,TGI,[23],> 100 µM
same,TGI,[24],> 100 µM
same,TGI,[26],> 100 µM
same,TGI,[27],> 100 µM
same,TGI,[28],> 100 µM
same,TGI,[50],> 100 µM
same,TGI,[29],> 100 µM
same,TGI,[30],> 100 µM
same,TGI,[31],> 100 µM
same,TGI,[32],> 100 µM
same,TGI,[33],> 100 µM
same,TGI,[34],> 100 µM
same,TGI,[35],> 100 µM
same,TGI,[36],> 100 µM
same,TGI,[37],> 100 µM
same,TGI,[53],> 100 µM
same,TGI,[39],> 100 µM
same,TGI,[54],> 100 µM
same,TGI,[55],> 100 µM
same,TGI,[40],> 100 µM
same,TGI,[41],> 100 µM
same,TGI,[56],> 100 µM
same,TGI,[42],> 100 µM
same,TGI,[57],> 100 µM
same,TGI,[43],> 100 µM
same,TGI,[44],> 100 µM
